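GI50 is the concentration that inhibits growth by half. TGI: concentration producing complete growth inhibition.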
Legend:
Experiment in all cases: DTP human tumour cell line panel, 384-well format
786-0 renal = tested on: 786-0 renal
CAKI-1 renal = tested on: CAKI-1 renal
KM12 colon = tested on: KM12 colon
SNB-75 CNS = tested on: SNB-75 CNS
HS 578T breast = tested on: HS 578T breast
NCI-H322M lung = tested on: NCI-H322M lung
SR leukemia = tested on: SR leukemia
BT-549 breast = tested on: BT-549 breast
UACC-62 melanoma = tested on: UACC-62 melanoma
OVCAR-3 ovarian = tested on: OVCAR-3 ovarian
CCRF-CEM leukemia = tested on: CCRF-CEM leukemia
SF-295 CNS = tested on: SF-295 CNS
NCI/ADR-RES ovarian = tested on: NCI/ADR-RES ovarian
NCI-H522 lung = tested on: NCI-H522 lung
LOX IMVI melanoma = tested on: LOX IMVI melanoma
DU-145 prostate = tested on: DU-145 prostate
HT29 colon = tested on: HT29 colon
NCI-H226 lung = tested on: NCI-H226 lung
MCF7 breast = tested on: MCF7 breast
MDA-MB-435 melanoma = tested on: MDA-MB-435 melanoma
SK-OV-3 ovarian = tested on: SK-OV-3 ovarian
SK-MEL-28 melanoma = tested on: SK-MEL-28 melanoma
MDA-MB-468 breast = tested on: MDA-MB-468 breast
U251 glioblastoma = tested on: U251 glioblastoma
HOP-62 NSCLC = tested on: HOP-62 NSCLC
K-562 leukemia = tested on: K-562 leukemia
PC-3 prostate = tested on: PC-3 prostate
EKVX NSCLC = tested on: EKVX NSCLC
RPMI-8226 leukemia = tested on: RPMI-8226 leukemia
SNB-19 CNS = tested on: SNB-19 CNS
HCT-15 colon = tested on: HCT-15 colon
OVCAR-4 ovarian = tested on: OVCAR-4 ovarian
HOP-92 NSCLC = tested on: HOP-92 NSCLC
RXF 393 renal = tested on: RXF 393 renal
SF-539 CNS = tested on: SF-539 CNS
SN12C renal = tested on: SN12C renal
UACC-257 melanoma = tested on: UACC-257 melanoma
A498 renal = tested on: A498 renal
MOLT-4 leukemia = tested on: MOLT-4 leukemia
OVCAR-8 ovarian = tested on: OVCAR-8 ovarian
NCI-H23 lung = tested on: NCI-H23 lung
A549 NSCLC = tested on: A549 NSCLC
IGROV1 ovarian = tested on: IGROV1 ovarian
TK-10 renal = tested on: TK-10 renal
ACHN renal = tested on: ACHN renal
COLO 205 colon = tested on: COLO 205 colon
HCC-2998 colon = tested on: HCC-2998 colon
NCI-H460 NSCLC = tested on: NCI-H460 NSCLC
M14 melanoma = tested on: M14 melanoma
OVCAR-5 ovarian = tested on: OVCAR-5 ovarian
SF-268 CNS = tested on: SF-268 CNS
SK-MEL-5 melanoma = tested on: SK-MEL-5 melanoma
T-47D breast = tested on: T-47D breast
MDA-MB-231 breast = tested on: MDA-MB-231 breast
MALME-3M melanoma = tested on: MALME-3M melanoma
SW-620 colon = tested on: SW-620 colon
HL-60(TB) leukemia = tested on: HL-60(TB) leukemia
UO-31 renal = tested on: UO-31 renal

`CNc1nc(-c2ccc3c(N)n[nH]c3c2)cc(N2C[C@@H](C(=O)NC3CCCCC3)CC[C@H]2C)n1` gave a GI50 ([…]-0 renal) of 3.25 µM, a TGI (786-0 renal) of 13.8 µM and a GI50 (CAKI-1 renal) of 1.61 µM. For the same compound, the TGI (CAKI-1 renal) was 15.2 µM, the GI50 (KM12 colon) was 10.1 µM and the TGI (KM12 colon) was 21.8 µM. The GI50 (SNB-75 CNS) was 1.19 µM, the TGI (SNB-75 CNS) was 13.4 µM and the GI50 (HS 578T breast) was 1.33 µM. It also gave a TGI (HS 578T breast) of 6.42 µM, a GI50 (NCI-H322M lung) of 7.92 µM and a TGI (NCI-H322M lung) of 20.7 µM. It also gave a GI50 (SR leukemia) of 0.475 µM, a TGI (SR leukemia) of 8.48 µM and a GI50 (BT-549 breast) of 1.72 µM. It also gave a TGI (BT-549 breast) of 13.9 µM, a GI50 (UACC-62 melanoma) of 1.93 µM and a TGI (UACC-62 melanoma) of 13.5 µM. For the same compound, the GI50 (OVCAR-3 ovarian) was 3.45 µM, the TGI (OVCAR-3 ovarian) was 16.7 µM and the GI50 (CCRF-CEM leukemia) was 1.04 µM. The TGI (CCRF-CEM leukemia) was 3.12 µM, the GI50 (SF-295 CNS) was 4.81 µM and the TGI (SF-295 CNS) was 18.3 µM. For the same compound, the GI50 (NCI/ADR-RES ovarian) was 13.5 µM, the TGI (NCI/ADR-RES ovarian) was 26.4 µM and the GI50 (NCI-H522 lung) was 6.52 µM. For the same compound, the TGI (NCI-H522 lung) was 19.9 µM, the GI50 (LOX IMVI melanoma) was 4.8 µM and the TGI (LOX IMVI melanoma) was 17.4 µM. For the same compound, the GI50 (DU-145 prostate) was 10.3 µM, the TGI (DU-145 prostate) was 22.1 µM and the GI50 (HT29 colon) was 3.45 µM. It also gave a TGI (HT29 colon) of 18 µM, a GI50 (NCI-H226 lung) of 2.15 µM and a TGI (NCI-H226 lung) of 14 µM. It also gave a GI50 (MCF7 breast) of 0.417 µM, a TGI (MCF7 breast) of 2.95 µM and a GI50 (MDA-MB-435 melanoma) of 3.29 µM. It also gave a TGI (MDA-MB-435 melanoma) of 16.9 µM, a GI50 (SK-OV-3 ovarian) of 1.68 µM and a TGI (SK-OV-3 ovarian) of 12.1 µM. The GI50 (SK-MEL-28 melanoma) was 1.54 µM, the TGI (SK-MEL-28 melanoma) was 12.5 µM and the GI50 (MDA-MB-468 breast) was 0.213 µM. For the same compound, the TGI (MDA-MB-468 breast) was 0.997 µM, the GI50 (U251 glioblastoma) was 10.4 µM and the TGI (U251 glioblastoma) was 22.4 µM. It also gave a GI50 (HOP-62 NSCLC) of 7.05 µM, a TGI (HOP-62 NSCLC) of 20.3 µM and a GI50 (K-562 leukemia) of 4.88 µM. The TGI (K-562 leukemia) was 17.4 µM, the GI50 (PC-3 prostate) was 0.877 µM and the TGI (PC-3 prostate) was 14.7 µM. For the same compound, the GI50 (EKVX NSCLC) was 2.17 µM, the TGI (EKVX NSCLC) was 15 µM and the GI50 (RPMI-8226 leukemia) was 0.471 µM. For the same compound, the TGI (RPMI-8226 leukemia) was 3.49 µM, the GI50 (SNB-19 CNS) was 7.1 µM and the TGI (SNB-19 CNS) was 20 µM. The GI50 (HCT-15 colon) was 2.81 µM, the TGI (HCT-15 colon) was 13.9 µM and the GI50 (OVCAR-4 ovarian) was 2.58 µM. It also gave a TGI (OVCAR-4 ovarian) of 13.3 µM, a GI50 (HOP-92 NSCLC) of 0.99 µM and a TGI (HOP-92 NSCLC) of 6.78 µM. For the same compound, the GI50 (RXF 393 renal) was 2.97 µM, the TGI (RXF 393 renal) was 13 µM and the GI50 (SF-539 CNS) was 3.52 µM. For the same compound, the TGI (SF-539 CNS) was 15.8 µM, the GI50 (SN12C renal) was 1.9 µM and the TGI (SN12C renal) was 15.5 µM. The GI50 (UACC-257 melanoma) was 1.62 µM, the TGI (UACC-257 melanoma) was 10.5 µM and the GI50 (A498 renal) was 0.666 µM. It also gave a TGI (A498 renal) of 7.16 µM, a GI50 (MOLT-4 leukemia) of 0.545 µM and a TGI (MOLT-4 leukemia) of 1.9 µM. It also gave a GI50 (OVCAR-8 ovarian) of 9.7 µM, a TGI (OVCAR-8 ovarian) of 21.6 µM and a GI50 (NCI-H23 lung) of 1.86 µM. The TGI (NCI-H23 lung) was 13.2 µM, the GI50 (A549 NSCLC) was 3.78 µM and the TGI (A549 NSCLC) was 16.2 µM. It also gave a GI50 (IGROV1 ovarian) of 2.66 µM, a TGI (IGROV1 ovarian) of 10.1 µM and a GI50 (TK-10 renal) of 3.15 µM. For the same compound, the TGI (TK-10 renal) was 16.4 µM, the GI50 (ACHN renal) was 4.99 µM and the TGI (ACHN renal) was 20.8 µM. For the same compound, the GI50 (COLO 205 colon) was 1.56 µM, the TGI (COLO 205 colon) was 11 µM and the GI50 (HCC-2998 colon) was 2.73 µM. For the same compound, the TGI (HCC-2998 colon) was 13.9 µM, the GI50 (NCI-H460 NSCLC) was 1.6 µM and the TGI (NCI-H460 NSCLC) was 13.9 µM. It also gave a GI50 (M14 melanoma) of 1.7 µM, a TGI (M14 melanoma) of 17.8 µM and a GI50 (OVCAR-5 ovarian) of 1.64 µM. It also gave a TGI (OVCAR-5 ovarian) of 6.52 µM, a GI50 (SF-268 CNS) of 5.21 µM and a TGI (SF-268 CNS) of 19.3 µM. The GI50 (SK-MEL-5 melanoma) was 0.798 µM, the TGI (SK-MEL-5 melanoma) was 2.81 µM and the GI50 (T-47D breast) was 0.0787 µM. The TGI (T-47D breast) was 1.58 µM, the GI50 (MDA-MB-231 breast) was 1.91 µM and the TGI (MDA-MB-231 breast) was 16.7 µM. It also gave a GI50 (MALME-3M melanoma) of 0.157 µM, a TGI (MALME-3M melanoma) of 2.01 µM and a GI50 (SW-620 colon) of 11.6 µM. For the same compound, the TGI (SW-620 colon) was 24 µM, the GI50 (HL-60(TB) leukemia) was 1.26 µM and the TGI (HL-60(TB) leukemia) was 2.85 µM. It also gave a GI50 (UO-31 renal) of 5.39 µM and a TGI (UO-31 renal) of 19.4 µM.

From PubChem BioAssay (NCI)
